Experimental data published in US11826344B2, “Composition, method of manufacture, and use of site-specific delivery of bruceolides for treatment of cancer and other diseases” (HOWARD UNIVERSITY, priority 2015, dated 2023).

Assays:
Type in all cases: cell-based, human
[1] = tested on: Prostate cancer lines PC3 and LNCaP; assay: Preliminary cytotoxicity study of brusatol solution on prostate cancer cell lines (FIG. 1); details: brusatol 1 nM to 10,000 nM, read from FIG. 1, read-out: IC50 (kills prostate cancer cells)
Description: (§1) The human prostate cancer cell lines, PC3 and LNCaP, were obtained from American Type Culture Collection (Manassas, VA). The PC3 and LNCaP cell lines were maintained in RPMI 1640 supplemented with 10% (v/v) FBS and 100 U/mL of penicillin G and 100 µg/mL of streptomycin sulfate. The cells were maintained as a monolayer in an incubator at 37° C. in a humid atmosphere with 5% CO2.

PC3 cells = assay: Cell Titer 96 Non-Radioactive Cell Proliferation Assay, PC3 cells, 120 h; details: PC3, 10-500 nM
Description: as §1
(§2) PC3 (seeding density of 3,000 cells per well) and LNCaP (seeding density of 6,000 cells per well) were seeded in 96-well plates and allowed to attach for 24 h. […] Cell viability was assessed at 120 h after treatment. The Cell Titer 96® Non-Radioactive Cell Proliferation Assay manufactured by Promega Corporation was employed for this study. Results are presented as percent viability normalized to controls and represent the mean±SD of six replicates per concentration tested. Results were analyzed using One-way Analysis of Variance (ANOVA) and Student's t-test with the aid of SPSS® statistical software. Differences were considered significant at p<0.05.
(§3) The toxicity of the brusatol-loaded nanoparticles in prostate cancer cell lines was evaluated over 120 hours using the Cell Titer 96® Non-Radioactive Cell Proliferation Assay (Promega Corp.). LNCaP cells are androgen receptor dependent while PC-3 cells are androgen independent. […]

LNCaP cells [2] = assay: Cell Titer 96 Non-Radioactive Cell Proliferation Assay, LNCaP cells, 120 h; details: 10-500 nM
Description: as §1, §2, §3

LNCaP cells [3] = assay: Cell cycle analysis by propidium iodide flow cytometry; details: 50 nM brusatol, 120 h (day 5)
Description: LNCaP cells (seeding density of 40,000 cells per well) were seeded in triplicates in a 24-well plate and incubated for 48 hours. […] The experiment was done in triplicate. At the 120 h time point, cells were harvested and washed twice with cold PBS, fixed in 70% ethanol for 1 h at 4° C. The cells were then washed twice with PBS, and treated with ribonuclease followed by staining with propidium iodide. The stained cells were subjected to cell cycle analysis using the BD Accuri™ C6 flow cytometer (BD Biosciences, Ann Arbor, MI, USA). For each replicate, 20,000 events were recorded.

Substance: Brusatol
- IC50 [1]: 1 to 100 nM
- toxicity (in words) (PC3 cells): dose-dependent toxicity
- toxicity (in words) (LNCaP cells [2]): dose-dependent toxicity
- cell cycle effect (LNCaP cells [3]): induces a G1 arrest
- cell cycle effect (LNCaP cells [3]; listed as brusatol solution): G1 arrest
